The source of these data is US20260069656A1, “Nutritive Polypeptides and Formulations Thereof, and Methods of Production and Use Thereof” (Axcella Health Inc., priority 2013, published 2026).

This assay relates to GLP-2. As to the kind of experiment: Total GLP-2 ELISA, plasma GLP-2 in healthy fasted rats. The class given is in vivo, rat. On the procedure:
Animals were treated and acutely dosed with test articles as part of pharmacokinetic rodent experiments according to methods described herein. In this experiment, two test articles were analyzed, vehicle and a nutritive formulation of SEQID-240, dosed at 1.54 g/kg.
Total GLP-2 was measured with Millipore Total GLP-2 ELISA Kit (Millipore, EZGLP2-37K). The ELISA kit was equilibrated to room temperature for a minimum of 30 minutes prior to running the assay. The kit GLP-2 Standard, Quality Control 1 and Quality Control 2 were reconstituted with 500 μL MilliQ water, inverted 5 times and incubated at room temperature for 5 minutes, then gently vortexed to mix. The standard curve was prepared by diluting the GLP-2 Standard serially 1:1 in kit Assay Buffer to generate an eight point standard curve including 0 ng/mL GLP-2. Plasma samples were thawed on ice and centrifuged for 10 minutes at approximately 1109× rcf to pellet insoluble material. Fasted plasma matrix from untreated, fasted rat was prepared for running the standard and quality controls in duplicate at 20% (2×).
1× Wash Buffer was prepared in a clean 500 mL glass bottle by combining 50 mL 10× Wash Buffer with 450 mL MilliQ water. Strips were prepared by washing 3 times with 300 μL 1× Wash Buffer applied with a 30-300 μL 8-channel pipette. Between washes the wash buffer was decanted into a waste receptacle and the plate tapped sharply on a stack of paper towels to remove remaining wash buffer.
Following the first wash, 90 μL of Assay Buffer was added to sample wells, and 50 μL of 20% matrix in Assay Buffer was added to all standard and quality control wells. 10 μL of sample was added to each sample well and 50 μL of standard and quality control were added to matrix containing wells. Samples, standards and quality control wells were run in duplicate, except for 0 ng/mL GLP-2 standard which was run in quadruplicate.
The plate was sealed with a plastic plate seal and incubated at room temperature on a horizontal plate shaker at 450 rpm for 2 hours. Following the first incubation, the plate was washed three times with 1× Wash Buffer, decanting into a waste receptacle and tapping the inverted plate sharply on a stack of paper towels to remove excess wash buffer after each wash.
100 μL of Detection Antibody was added to each well and the plate was sealed with a plastic plate seal and incubated at room temperature on a horizontal plate shaker at 450 rpm for 1 hour. […]
Absorbance was measured on a SynergyMX Plate Reader at 450 nm and 590 nm. Measured values were the difference between 450 nm and 590 nm absorbance values.
Data were analyzed with GraphPad Prism 6.03. […]
Background: In an ELISA, binding on a coated surface is turned into a signal by an enzyme label.

In the case of “SEQID-00240: nutritive polypeptide naturally produced in Cow, recombinantly expressed in E. coli (DLEGSLEQEKKLRMDLERAKRKLEGDLKLAQESTMDIENDKQQLDEKLKK; listed as Bos taurus)”, the “GLP-2 area under curve vs vehicle” value (0-60 minutes, P<0.005) is on record as “significantly greater in the SEQID-00240 treatment compared to vehicle” and the “GLP-2 area under curve vs vehicle” value (0-240 minutes, P<0.01) is recorded as “significantly greater in the SEQID-00240 treatment compared to vehicle”. Further, the “total GLP-2 concentration vs vehicle” value (1.54 g/kg, at 15, 30, 60 and 120 minutes following treatment) is “statistically significantly greater than vehicle”. Under “1.54 g/kg, at 15, 30 and 60 minutes following gavage”, the “total GLP-2 concentration relative to time 0” value is given as “statistically significant increase in GLP-2 concentration relative to time 0”.
